Results: publication PMC10420662, “Novel 7-Deazapurine Incorporating Isatin Hybrid Compounds as Protein Kinase Inhibitors: Design, Synthesis, In Silico Studies, and Antiproliferative Evaluation” (Molecules, 2023)

Legend:
[1] = test system: MDA-MB-231; experiment: In vitro cytotoxicity MTT assay; type: cell-based; conditions: Homo sapiens, 24 h treatment, mean ± SD of three experiments
Experimental: (§1) Briefly, the cytotoxicity of the synthesized derivatives and the reference compounds was assessed via the MTT assay on four cancer cell lines. The cells were cultured in an RPMI11640 medium with 10% fetal bovine serum (FBS) and an antibiotic cocktail of […] streptomycin and 100 units/mL penicillin. Cancer cell lines were seeded independently in 96-well plates at a concentration of 1.0 × 10^4 cells/well at 37 °C, 5% CO2, and 100% relative humidity for 48 h. Afterwards, the incubated cells were treated with five concentrations of the synthesized derivatives for 24 h. Then, 20 µL MTT (5 mg/mL) was added and left for 4 h before adding 100 µL dimethyl sulfoxide (DMSO) to each well to solubilize the formed formazan.

[2] = test system: HeLa; experiment: In vitro cytotoxicity MTT assay; type: cell-based; conditions: Homo sapiens, 24 h treatment, mean ± SD of three experiments
Experimental: as §1

[3] = test system: MCF-7; experiment: In vitro cytotoxicity MTT assay; type: cell-based; conditions: Homo sapiens, MCF7, 24 h treatment, mean ± SD of three experiments
Experimental: as §1

[4] = test system: HepG2; experiment: In vitro cytotoxicity MTT assay; type: cell-based; conditions: Homo sapiens, 24 h treatment, mean ± SD of three experiments
Experimental: as §1

[5] = test system: HepG2, MCF-7, MDA-MB-231, and HeLa cell lines; experiment: In vitro cytotoxicity MTT assay, all tested cell lines; type: cell-based, human
Experimental: as §1

[6] = test system: HepG2 cells; experiment: Cell cycle analysis (propidium iodide flow cytometry); type: cell-based, human; conditions: 6.11 μM, 24 h
Experimental: Cell cycle analysis can determine at which phase in the cell cycle apoptosis occurs. The cell cycle is four phases consisting of G1 (growth), S (DNA synthesis), G2 (growth and preparation for mitosis), and M (mitosis). Normal cell growth and proliferation are controlled by various checkpoints at these phases. Thus, HepG2 cells were treated with 6.11 μM of compound 5 to determine at which phase apoptosis occurs in the cell cycle for 24 h (Figure 3 and Table 4).
Effect of compound 5 on cell cycle distribution was analyzed using following the method described in [17, 29]. Briefly, to determine the influence of compound 5 on the cell cycle progression of HepG2 cells, flow cytometry analysis was performed using Propidium Iodide flow cytometry kit/BD (ab139418). First, the cells were cultured at a density of 2 × 10^5/well and incubated for 24 h. Afterwards, the cells were treated with compound 5 for 24 h. Then, the cells were fixed using 70% ethanol for 12 h at 4 °C. The cells were then washed with cold PBS, incubated with 100 µL RNase A for 30 min at 37 °C, and stained with Propidium Iodide (400 µL) in the dark at room temperature for 30 min. The stained cells were identified by running Epics XLMCL™ flow cytometer equipment (Beckman Coulter, Apeldoorn, The Netherlands), and the results were interpreted using Flowing software (version 2.5.1, Turku Centre for Biotechnology, Turku, Finland).

[7] = test system: caspase 3; experiment: Caspase 3 level assay (ELISA) in HepG2; type: cell-based, human; conditions: HepG2 cells, 24 h, vs untreated control
Experimental: (§2) The effect of compound 5 was also evaluated on caspase 3, caspase 9, BAX, and Bcl-2 protein levels in HepG2 (Table 6). […] Additionally, the level of Bcl-2 was reduced in the treated cells (0.18-fold) compared to untreated control cells.
(§3) Compound 5 effect on Caspase 3, caspase 9, BAX, and Bcl-2 levels was analyzed by following the method described in [17]. In 96-well plates, HepG2 cells were cultured and incubated for 24 h. The cells were then treated with compound 5 or 0.1% DMSO (v/v) for 24 h. Afterwards, caspase 3 and 9, BAX, and Bcl-2 levels were determined using ELISA assay kits KHO1091 (InvitrogenTM, Grand Island, NY, USA), EIA-4860 (DRU International Inc., Mountainside, NJ, USA), EIA-4487 (DRU International Inc., Mountainside, NJ, USA), and 99-0042 (InvitrogenTM, Grand Island, NY, USA), respectively, according to the manufacturers’ procedures.

[8] = test system: Bcl-2; experiment: Bcl-2 level assay (ELISA) in HepG2; type: cell-based, human; conditions: HepG2 cells, 24 h, vs untreated control
Experimental: as §2, §3

[9] = target: VEGFR2 (Homo sapiens, UniProt P35968); experiment: Kinase inhibition assay (ELISA kit)
Experimental: (§4) In vitro kinase inhibition assays were assessed against CDK2, EGFR, HER2, and VEGFR2, as described in [17, 27, 28]. […] Afterwards, the wells were washed. Then, 100 µL of the prepared biotin antibody was placed into each well and left for 1 h at room temperature. The wells were washed again before adding 100 µL of streptavidin solution and left for 45 min at room temperature. Then, 100 µL of TMB substrate reagent was added after a third washing step, and the plates were left for 30 min at room temperature. Finally, 50 µL of the stop solution was added to each well and the color intensity was measured at 450 nm.

[10] = test system: caspase 9; experiment: Caspase 9 level assay (ELISA) in HepG2; type: cell-based, human; conditions: HepG2 cells, 24 h, vs untreated control
Experimental: as §2, §3

[11] = target: HER2 (Homo sapiens, UniProt P04626); experiment: Kinase inhibition assay (ELISA kit)
Experimental: as §4

[12] = target: EGFR (Homo sapiens, UniProt P00533); experiment: Kinase inhibition assay (ELISA kit)
Experimental: as §4

[13] = test system: HepG2 cells; experiment: Apoptosis analysis (Annexin V-FITC/PI flow cytometry); type: cell-based, human
Experimental: Annexin V and propidium iodide (PI) reagent were used to detect the cell death in apoptosis by binding to phosphatidyl serine and DNA in plasma membrane, respectively. The cell death was examined by staining HepG2 cells with Annexin V and PI, and cellular fluorescence analysis was then performed using flow cytometry (Table 5). According to the results, compound 5 induced apoptosis by 160-fold in the late stage and by 20-fold in the early stage. […] As shown in the dot plot results, compound 5 caused exerted noticeable cell damage compared to untreated cells (Figure 4). Collectively, the results of cell cycle and apoptosis analysis confirmed the cytotoxicity effects of compound 5.
Effect of compound 5 on cell programmed cell death was analyzed using Annexin V-FITC cell apoptosis detection kit (K101-100) (BioVision Techology, Inc., Exon, PA, USA) by following the method described in [17, 30]. Briefly, in 6-well plates, HepG2 cells at a density of 2 × 10^5 were cultured and incubated for 24 h. The cultured cells were then treated with compound 5 for 24 h. Afterwards, the cells were trypsinized and gathered via centrifugation (5 min, 300× g), washed twice with PBS, and suspended in 0.1 mL of a 1X binding buffer. Then, the cells were double-stained with 5 µL Annexin V-FITC and 5 µL PI in the dark at room temperature for 15 min before they were examined using an Epics XL-MCL™ Flow Cytometer (Beckman Coulter, Apeldoorn, The Netherlands). The excitation wavelength was 488 nm while the emission wavelength was 530 nm. Finally, the data were analyzed using Flowing software (version 2.5.1, Turku Centre for Biotechnology, Turku, Finland).

[14] = test system: BAX; experiment: BAX level assay (ELISA) in HepG2; type: cell-based, human; conditions: HepG2 cells, 24 h, vs untreated control
Experimental: as §2, §3

[15] = target: CDK2 (Homo sapiens, UniProt P24941); experiment: Kinase inhibition assay (ELISA kit)
Experimental: as §4

Chain of EGFR (P00533 25-1210): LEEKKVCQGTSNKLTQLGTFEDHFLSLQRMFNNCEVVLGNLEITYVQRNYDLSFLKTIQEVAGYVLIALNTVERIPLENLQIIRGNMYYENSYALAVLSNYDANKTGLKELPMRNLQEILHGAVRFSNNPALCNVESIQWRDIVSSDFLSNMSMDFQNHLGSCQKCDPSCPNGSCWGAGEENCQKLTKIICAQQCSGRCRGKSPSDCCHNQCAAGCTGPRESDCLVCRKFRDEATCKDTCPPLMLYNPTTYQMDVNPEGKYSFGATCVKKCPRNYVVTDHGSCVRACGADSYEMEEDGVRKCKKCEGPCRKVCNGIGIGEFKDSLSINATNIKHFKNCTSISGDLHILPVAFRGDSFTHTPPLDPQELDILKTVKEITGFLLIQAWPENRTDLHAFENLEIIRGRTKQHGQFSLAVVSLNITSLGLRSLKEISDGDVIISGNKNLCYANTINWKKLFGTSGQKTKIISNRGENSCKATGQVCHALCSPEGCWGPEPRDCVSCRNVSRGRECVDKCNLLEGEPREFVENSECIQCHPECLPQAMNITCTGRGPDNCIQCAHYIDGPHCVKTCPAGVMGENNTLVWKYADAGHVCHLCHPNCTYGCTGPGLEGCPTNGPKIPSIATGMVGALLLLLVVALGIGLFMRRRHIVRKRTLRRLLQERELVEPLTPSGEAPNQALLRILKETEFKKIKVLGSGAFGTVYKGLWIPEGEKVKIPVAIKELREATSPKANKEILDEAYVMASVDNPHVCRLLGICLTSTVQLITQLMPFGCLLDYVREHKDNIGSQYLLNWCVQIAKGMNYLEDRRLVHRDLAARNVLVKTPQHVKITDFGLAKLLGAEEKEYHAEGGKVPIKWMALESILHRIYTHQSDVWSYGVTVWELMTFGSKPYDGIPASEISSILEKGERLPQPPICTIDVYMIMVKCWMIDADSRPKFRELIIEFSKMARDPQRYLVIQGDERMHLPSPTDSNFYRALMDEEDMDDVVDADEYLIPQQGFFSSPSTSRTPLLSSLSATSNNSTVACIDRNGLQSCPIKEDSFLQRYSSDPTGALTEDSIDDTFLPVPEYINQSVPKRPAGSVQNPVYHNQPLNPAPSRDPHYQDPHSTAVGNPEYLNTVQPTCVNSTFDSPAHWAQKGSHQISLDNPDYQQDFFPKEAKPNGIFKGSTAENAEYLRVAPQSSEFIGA
Chain of VEGFR2 (P35968 20-1356): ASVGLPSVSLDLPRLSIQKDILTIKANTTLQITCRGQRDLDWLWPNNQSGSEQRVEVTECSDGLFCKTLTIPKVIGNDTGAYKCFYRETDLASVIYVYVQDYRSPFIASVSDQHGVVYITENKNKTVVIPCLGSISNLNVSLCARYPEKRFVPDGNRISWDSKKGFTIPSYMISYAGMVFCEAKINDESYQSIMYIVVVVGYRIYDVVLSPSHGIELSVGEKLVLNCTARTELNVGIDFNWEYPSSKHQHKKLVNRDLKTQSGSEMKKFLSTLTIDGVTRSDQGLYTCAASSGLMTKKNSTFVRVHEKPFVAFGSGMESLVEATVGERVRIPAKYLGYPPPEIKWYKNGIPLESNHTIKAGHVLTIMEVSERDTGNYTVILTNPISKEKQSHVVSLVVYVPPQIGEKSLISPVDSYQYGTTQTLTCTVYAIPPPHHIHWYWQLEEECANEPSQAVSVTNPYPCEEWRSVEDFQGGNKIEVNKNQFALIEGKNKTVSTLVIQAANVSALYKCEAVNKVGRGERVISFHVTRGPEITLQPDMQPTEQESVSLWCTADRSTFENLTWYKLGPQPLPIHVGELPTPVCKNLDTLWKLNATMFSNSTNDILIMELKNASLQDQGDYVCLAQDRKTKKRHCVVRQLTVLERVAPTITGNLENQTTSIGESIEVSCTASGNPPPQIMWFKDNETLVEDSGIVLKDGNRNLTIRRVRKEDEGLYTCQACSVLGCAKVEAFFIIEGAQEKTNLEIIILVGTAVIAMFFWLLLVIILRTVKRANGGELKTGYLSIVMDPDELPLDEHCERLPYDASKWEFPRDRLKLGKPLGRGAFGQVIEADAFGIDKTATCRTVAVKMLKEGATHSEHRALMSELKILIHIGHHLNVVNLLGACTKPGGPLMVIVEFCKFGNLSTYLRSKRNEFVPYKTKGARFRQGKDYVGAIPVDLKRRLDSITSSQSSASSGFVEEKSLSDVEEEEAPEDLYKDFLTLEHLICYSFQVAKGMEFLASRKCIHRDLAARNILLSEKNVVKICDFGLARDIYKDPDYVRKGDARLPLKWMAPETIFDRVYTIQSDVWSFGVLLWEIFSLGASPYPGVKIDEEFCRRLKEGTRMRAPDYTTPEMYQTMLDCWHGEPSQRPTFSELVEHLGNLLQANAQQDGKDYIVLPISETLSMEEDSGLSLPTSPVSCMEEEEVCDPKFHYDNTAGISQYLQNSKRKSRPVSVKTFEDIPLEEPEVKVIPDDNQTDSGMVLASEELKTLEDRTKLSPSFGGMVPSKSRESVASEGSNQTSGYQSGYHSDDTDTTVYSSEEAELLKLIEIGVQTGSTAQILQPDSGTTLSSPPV
Chain of HER2 (P04626 23-1255): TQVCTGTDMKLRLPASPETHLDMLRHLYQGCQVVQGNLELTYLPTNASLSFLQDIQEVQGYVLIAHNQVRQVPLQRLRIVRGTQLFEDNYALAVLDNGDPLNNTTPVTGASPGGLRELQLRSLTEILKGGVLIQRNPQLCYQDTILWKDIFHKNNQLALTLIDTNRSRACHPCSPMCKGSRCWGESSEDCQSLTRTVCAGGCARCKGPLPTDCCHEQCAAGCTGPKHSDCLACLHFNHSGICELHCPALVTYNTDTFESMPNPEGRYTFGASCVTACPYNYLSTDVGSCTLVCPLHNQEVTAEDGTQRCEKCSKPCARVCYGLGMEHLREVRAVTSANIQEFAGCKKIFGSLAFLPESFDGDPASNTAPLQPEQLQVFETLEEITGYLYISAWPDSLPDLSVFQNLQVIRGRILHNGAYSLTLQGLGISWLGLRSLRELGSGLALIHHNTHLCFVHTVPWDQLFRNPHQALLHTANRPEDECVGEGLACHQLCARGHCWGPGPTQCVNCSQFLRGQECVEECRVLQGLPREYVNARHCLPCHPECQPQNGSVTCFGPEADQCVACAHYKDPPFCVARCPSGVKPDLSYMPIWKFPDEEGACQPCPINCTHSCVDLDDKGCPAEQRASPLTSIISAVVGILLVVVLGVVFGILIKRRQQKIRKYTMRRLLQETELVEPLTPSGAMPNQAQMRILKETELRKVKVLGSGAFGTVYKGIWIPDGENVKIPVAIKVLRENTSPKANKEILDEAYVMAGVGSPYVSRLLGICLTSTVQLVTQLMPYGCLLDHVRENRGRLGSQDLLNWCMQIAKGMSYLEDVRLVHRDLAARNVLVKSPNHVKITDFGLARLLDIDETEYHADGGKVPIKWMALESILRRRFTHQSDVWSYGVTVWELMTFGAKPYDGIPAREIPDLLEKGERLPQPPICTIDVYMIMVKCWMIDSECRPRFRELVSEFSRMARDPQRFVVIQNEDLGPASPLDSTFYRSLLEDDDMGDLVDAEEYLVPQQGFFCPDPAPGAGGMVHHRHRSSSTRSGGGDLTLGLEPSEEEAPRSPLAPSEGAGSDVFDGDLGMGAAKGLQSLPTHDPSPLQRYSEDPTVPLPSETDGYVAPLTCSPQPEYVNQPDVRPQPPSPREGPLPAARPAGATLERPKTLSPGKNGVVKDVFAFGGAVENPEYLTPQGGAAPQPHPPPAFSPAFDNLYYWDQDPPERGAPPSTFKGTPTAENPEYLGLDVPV

Structure (SMILES): O=C1Nc2ccc(F)cc2C1=NNC(=O)c1ccc(Nc2ncnc3[nH]ccc23)cc1 [Compound 3, 4-((7H-pyrrolo[2,3-d]pyrimidin-4-yl)amino)-N′-(5-fluoro-2-oxoindolin-3-ylidene)benzohydrazide]
- IC50 [1]: 42.9 ± 2.6 µM
- IC50 [2]: 39.1 ± 2.4 µM
- IC50 [3]: 63.7 ± 3.4 µM
- IC50 [4]: 59.3 ± 3.3 µM

Structure (SMILES): O=C1Nc2ccc(Cl)cc2C1=NNC(=O)c1ccc(Nc2ncnc3[nH]ccc23)cc1 [Compound 2, 4-((7H-pyrrolo[2,3-d]pyrimidin-4-yl)amino)-N′-(5-chloro-2-oxoindolin-3-ylidene)benzohydrazide]
- IC50 [1]: 51.3 ± 2.9 µM
- IC50 [2]: 45.4 ± 2.6 µM
- IC50 [3]: 72.5 ± 3.7 µM
- IC50 [4]: 67.4 ± 3.6 µM

Structure (SMILES): O=C1Nc2ccccc2C1=NNC(=O)c1ccc(Nc2ncnc3[nH]ccc23)cc1 [Compound 1, 4-((7H-pyrrolo[2,3-d]pyrimidin-4-yl)amino)-N′-(2-oxoindolin-3-ylidene)benzohydrazide]
- IC50 [1]: 16 ± 1.3 µM
- IC50 [2]: 12.4 ± 0.9 µM
- IC50 [3]: 18.5 ± 1.5 µM
- IC50 [4]: 25.8 ± 1.9 µM
- Antiproliferative activity (in words) [5]: moderate antiproliferative activity

Structure (SMILES): CCN(CC)CCNC(=O)c1c(C)[nH]c(/C=C2\C(=O)Nc3ccc(F)cc32)c1C [Sunitinib, reference compound]
- IC50 [1]: 8.41 ± 0.7 µM
- IC50 [2]: 7.48 ± 0.6 µM
- IC50 [3]: 5.19 ± 0.4 µM
- IC50 [4]: 6.82 ± 0.5 µM

Structure (SMILES): Cc1ccc2c(c1)C(=NNC(=O)c1ccc(Nc3ncnc4[nH]ccc34)cc1)C(=O)N2 [Compound 4, 4-((7H-pyrrolo[2,3-d]pyrimidin-4-yl)amino)-N′-(5-methyl-2-oxoindolin-3-ylidene)benzohydrazide]
- IC50 [1]: 73.2 ± 3.3 µM
- IC50 [2]: 75.4 ± 3.5 µM
- IC50 [3]: 80.2 ± 4.2 µM
- IC50 [4]: 92.7 ± 4.5 µM

Structure (SMILES): COc1ccc2c(c1)C(=NNC(=O)c1ccc(Nc3ncnc4[nH]ccc34)cc1)C(=O)N2 [Compound 5, 4-((7H-pyrrolo[2,3-d]pyrimidin-4-yl)amino)-N′-(5-methoxy-2-oxoindolin-3-ylidene)benzohydrazide]
- Cell Cycle Distribution %G0-G1 [6]: 49.02%
- Cell Cycle Distribution %G2/M [6]: 6.05%
- Cell Cycle Distribution %Pre-G1 [6]: 39.72%
- Cell Cycle Distribution %S [6]: 44.93%
- Cell cycle arrest phase [6]: arrested the cell cycle of HepG2 cells at G1 and S phases
- Gene Expression Fold Change Caspase 3 [7]: 7.984 fold
- Gene Expression Fold Change Caspase 3 ([7]; listed as compound 5): 8 fold
- Gene Expression Fold Change Bcl-2 [8]: 0.184 fold
- Gene Expression Fold Change Bcl-2 ([8]; listed as compound 5): 0.18 fold
- IC50 [9]: 0.178 ± 0.009 µM
- Gene Expression Fold Change Caspase 9 [10]: 4.853 fold
- Gene Expression Fold Change Caspase 9 ([10]; listed as compound 5): 5 fold
- IC50 [11]: 0.081 ± 0.002 µM
- IC50 [1]: 2.48 ± 0.1 µM
- IC50 [2]: 1.98 ± 0.1 µM
- IC50 [3]: 5.93 ± 0.3 µM
- IC50 [4]: 6.11 ± 0.4 µM
- IC50 [12]: 0.103 ± 0.006 µM
- Apoptosis Early ([13]; 24 h, Annexin V-FITC/PI): 13.28%
- Apoptosis Late ([13]; 24 h, Annexin V-FITC/PI): 21.16%
- Necrosis ([13]; 24 h, Annexin V-FITC/PI): 5.28%
- Increase in necrotic cell death ([13]; compared to untreated cells): 4.75 fold
- Induction of apoptosis in the early stage ([13]; compared to untreated cells): 20 fold
- Induction of apoptosis in the late stage ([13]; compared to untreated cells): 160 fold
- Gene Expression Fold Change Bax [14]: 6.13 fold
- Gene Expression Fold Change Bax ([14]; listed as compound 5): 6 fold
- IC50 [15]: 0.131 ± 0.007 µM

Structure (SMILES): COc1cccc2c1C(=O)c1c(O)c3c(c(O)c1C2=O)C[C@@](O)(C(=O)CO)C[C@@H]3O[C@H]1C[C@H](N)[C@H](O)[C@H](C)O1 [DOXORUBICIN, doxorubicin, reference compound]
- IC50 [4]: 4.5 ± 0.2 µM
